Laboratory results reported in patent US12275685B2, “Oligo-benzamide analogs and their use in cancer treatment” (Board of Regents, The University of Texas System, priority 2018, dated 2025).
Like-named read-outs stand apart in the source and are kept apart here.

What was measured:
[1] = system: therapy resistant HGSOC PDX; test: Therapy resistant HGSOC PDX model; format: in vivo, mice; settings: 10 mg/kg/day/i.p
Protocol: (§1) FIGS. 49A-F: (FIGS. 49A-B) Effect of ERX-208 on chemotherapy resistant OCa cells was measured by MTT and apoptosis assay. (FIGS. 49C-F) Platinum-resistant PDX tumors were treated with vehicle or ERX-208 (10 mg/kg/day/i.p). Tumor volume (FIG. 49C), weights (FIG. 49D) tumors picture (FIG. 49E), bodyweights (FIG. 49F) are shown. ** P<0.01, ***p<0.001 ****p<0.0001.
(§2) ERX-208 is effective in reducing growth of chemotherapy resistant OCa. OCa initially responds to chemotherapy; however, majority will develop chemotherapy resistance. […] The inventors conducted a proof of principle study using a therapy resistant HGSOC PDX model received from the UTHealth OBGYN PDX core. ERX-208 treatment resulted ˜60% reduction in tumor volume (FIGS. 49C-F).

ES2 CDX tumors = test: ES2 CDX tumors; format: in vivo, nude mice; settings: 15 days
Protocol: FIG. 47: ES2/GFP/LUC cells were injected i.p. and tumors established. Mice (n=5) were treated with vehicle or ERX-208 (10 mg/kg/day/i.p). Tumor volume, tumor weight, number of tumor nodules are shown. **p<0.01,****p<0.0001.
(§3) ERX-208 suppressed growth of ES2 CDX tumors. ES2 cells stably labelled with GFP/LUC reporter (2×10^5) were injected i.p. into nude mice. Following establishment of tumors, mice (n=5/group) were randomized and treated for 5 days/week with either 10 mg/kg/ip of ERX-208 or vehicle. […] ERX-208 is effective in reducing growth of HGSOC PDX tumors. Following establishment of PDX tumors, NSG mice (n=6/group) were randomized and treated for 5 days/week with either 10 mg/kg/ip of ERX-208 or vehicle.

OCa cells [2] = test: MTT assay in OCa cells; format: cell-based
Protocol: (§4) FIGS. 12A-12D show the effect of TK208 against ovarian cancer cell lines ES2 (FIGS. 12A & 12B) and SKOV3 (FIGS. 12C & 12D).
(§5) FIGS. 42A-D: OCa cells were treated with ERX-11 (FIG. 42A) or ERX-208 (FIG. 42B). Primary OCa cells derived from ascites were treated with ERX-208 for 72 h (FIG. 42C) and cell viability by MTT assays. (FIG. 42D) Effect of ERX-208 on viability of IOSE cells was measured using MTT assays and TOV21G was used as +ve control.
(§6) ERX-208. […] Functionally, ERX-208 causes growth inhibition of OCa cells, as noted by MTT assays using five established OCa cells (ES2, SKOV3, A2780, TOV21G, TOV112D) and five primary OCa cells derived from HGSOC patient ascites (AS21, AS23, AS25, AS28, AS29) (FIGS. 42B-C). […] The inventor noted an IC50 of ˜50-100 nM for ERX-208 both for inducing ERS and in reducing the growth of OCa cells.

[3] = system: triple-negative breast cancer cells (TNBC); test: Growth inhibition of TNBC cells; format: cell-based
From the text: (§7) FIGS. 10A & 10B show effects of TK208 against cancer cells.
TNBC is difficult to be treated and currently there are no good drugs available in the market.
(§8) In addition, another tris-benzmaide compound TK208 was synthesized and tested against breast cancer and ovarian cancer cell lines (FIGS. 10-15). […] These compounds (e.g., TK41, TK208, TK308 (FIG. 21), TK309 (FIG. 22), TK314, TK315) are extremely potent compounds that inhibit tumor growth and kill breast and ovarian cancer cells and as such, they are superb therapeutic candidates for such diseases.

[4] = system: ES2 and SKOV3 ovarian cancer cells; test: Colony formation assay; format: cell-based
Protocol: FIG. 43: ES2 and SKOV3 cells were treated with ERX-208 and its effect on cell survival was measured using colony formation assays. ****p<0.0001.
as §6

OCa cells [5] = test: ER stress (ERS)/UPR induction in OCa cells, RT-PCR and western; format: cell-based
Protocol: FIG. 40: Time course of induction of sXBP1 and CHOP mRNA in 4 OCa cell lines—ES2, SKOV3, OVCAR3 and OVCAR4 by ERX-208. Following treatment of OCa cell lines with 100 nM ERX-208, cells were harvested at various time points and lysates subjected to RT-PCR for both CHOP and sXBP1.
FIG. 41: OCa cells were treated with ERX-208 for 16 h and the status of UPR proteins were determined using western blotting.
as §6

[6] = system: ES2 and SKOV3 ovarian cancer cells; test: Matrigel invasion chamber assay; format: cell-based
Protocol: FIG. 44: ES2 and SKOV3 cells were treated with ERX-208 and its effect on invasion was measured using Matrigel invasion chamber assays. ****p<0.0001.
as §6

OCa cells [7] = test: Caspase-Glo 3/7 apoptosis assay; format: cell-based
Protocol: as §4
FIG. 45: ERX-208 effect on apoptosis of OCa cells was measured using Caspase-Glo® 3/7 Assays. ****p<0.0001.
as §6

[8] = system: carboplatin resistant OCa cells; test: Chemotherapy resistant OCa cells, MTT and apoptosis assay; format: cell-based
Protocol: as §1, §2

ovarian cancer cells = test: Growth inhibition of ovarian cancer cells; format: cell-based
From the text: as §7, §8

[9] = system: ES2 and SKOV3 ovarian cancer cells; test: Cell cycle arrest; format: cell-based; settings: S phase
ovarian tumor = test: Ovarian xenograft and PDX models of TK208; format: in vivo, mouse
Protocol: FIGS. 33A-H. FIGS. 33A-D show ovarian cancer xenografts (ES2) treated with vehicle or TK208 (ERX-208). Tumor volume (FIG. 33A), body weight (FIG. 33B) distribution of tumor weights at necropsy (FIG. 33C) and nodules (FIG. 33D) were graphed. FIGS. 33E-H show ovarian PDX tumors were treated with vehicle or TK208 (ERX-208). Tumor volume (FIG. 33E), distribution of tumor weights at necropsy (FIG. 33F) and tumor images (FIG. 33G) and body weight (FIG. 33H) were graphed.
The inventors have tested the in vivo activity of TK208 (ERX-208) using both ovarian xenograft and PDX models.

HGSOC PDX tumors = test: HGSOC PDX tumors; format: in vivo, NSG mice; settings: 21 days
Protocol: FIGS. 48A-F: OCa PDX (n=6) tumors were established in the flanks of NSG mice. When the tumors reached 200 mm^3, treatment with vehicle or 10 mg/kg/day/i.p. ERX-208 was initiated. (FIG. 48A) Tumor volume, (FIG. 48B) tumor weight, (FIG. 48C) tumors picture, and
(FIG. 48D) body weight is shown. (FIGS. 48E-F) IHC analysis of GRP 78 as a marker of ER stress *p<0.05; **p<0.01, ****p<0.0001.
as §3

[10] = system: normal ovarian surface epithelial cells (IOSE); test: MTT assay in IOSE cells; format: cell-based
Protocol: as §5, §6

CC(C)COc1cc(C(=O)Nc2ccc(C(=O)N[C@H]3CC[C@H](C(=O)Nc4cnc5ccccc5c4)CC3)cc2OCC(C)C)ccc1NC(=O)c1ccc([N+](=O)[O-])c(OCCO)c1 [TK208]
reduction in tumor volume [1]: ~60% | reduction of tumor volume (ES2 CDX tumors; 10 mg/kg/ip 5 days/week, Xenogen-IVIS): ~60% | body weight (ES2 CDX tumors; 10 mg/kg/ip): no significant change in body weight | reduction in tumor nodules (ES2 CDX tumors; 10 mg/kg/ip): ~50% | reduction in tumor weight (ES2 CDX tumors; 10 mg/kg/ip): ~50% | activity against OCa cells / cell viability (OCa cells [2]): reduces cell viability | IC50 (OCa cells [2]; read-out: IC50 in reducing the growth of OCa cells): 50 to 100 nM | IC50 [3]: 10 to 100 nM | colony formation [4]: reduces colony formation | colony formation ([4]; listed as ERX-208): reduced colony formation | induction of CHOP mRNA (OCa cells [5]; 100 nM, within 24 h): > 15 fold | induction of sXBP1 mRNA (OCa cells [5]; 100 nM, within 24 h): > 10 fold | IC50 (OCa cells [5]; OCa cells, read-out: IC50 for inducing ERS): 50 to 100 nM | induction of UPR components at the protein level (OCa cells [5]; multiple OCa cell lines): induce classic UPR components peIF2a, CHOP and LC3B | invasion [6]: reduces invasion | invasion ([6]; listed as ERX-208): reduced | apoptosis (OCa cells [7]): promotes apoptosis | apoptosis of carboplatin resistant OCa cells [8]: promoted apoptosis | viability of carboplatin resistant OCa cells [8]: significantly reduced viability | IC50 (ovarian cancer cells): 10 to 100 nM | growth arrest [9]: promotes growth arrest | mouse body weight (ovarian tumor; mouse, in vivo): no effect on mouse body weight | reduction of ovarian tumor volume (ovarian tumor; xenograft and PDX models): good efficacy | reduction of tumor volume (HGSOC PDX tumors; 10 mg/kg/ip 5 days/week): ~68% | body weight (HGSOC PDX tumors; 10 mg/kg/ip): no significant changes in body weight | reduction in tumor weight (HGSOC PDX tumors; 10 mg/kg/ip): 60% | activity in IOSE [10]: limited activity
